# From BindingDB's records for doi:10.7270/Q2ZP450S (Catholic University of Daegu, 2017)
# Target: T1, Tyrosine-protein phosphatase non-receptor type 1 (Homo sapiens, UniProt P18031)
# T1 sequence (P18031 whole entry): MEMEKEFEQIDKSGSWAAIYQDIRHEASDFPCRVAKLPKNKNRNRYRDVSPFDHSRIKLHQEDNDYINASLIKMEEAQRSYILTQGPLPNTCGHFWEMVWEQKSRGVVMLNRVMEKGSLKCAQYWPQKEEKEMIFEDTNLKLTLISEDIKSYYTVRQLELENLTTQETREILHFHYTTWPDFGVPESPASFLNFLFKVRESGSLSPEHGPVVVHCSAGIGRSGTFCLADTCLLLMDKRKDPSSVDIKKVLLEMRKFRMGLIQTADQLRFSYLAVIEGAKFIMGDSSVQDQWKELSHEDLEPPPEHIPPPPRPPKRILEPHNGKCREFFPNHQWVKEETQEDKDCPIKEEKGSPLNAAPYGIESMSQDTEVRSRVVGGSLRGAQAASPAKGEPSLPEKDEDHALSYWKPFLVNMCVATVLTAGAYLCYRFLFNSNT
# Assay: PTP1B Assay
# Conditions: pH 6; 37 °C
# Protocol: In each 96-well plates (total 200 μL of volume), there were 2 mM p-NPP and PTP1B (0.05-0.1 μg) in a buffer containing 50 mM citrate (pH 6.0), 0.1 M NaCl, 1 mM EDTA, and 1 mM dithiothreitol (DTT) with or without test compound, following by pre-incubated at 37 °C for 10 min, and then implemented with 50 μL of p-NPP. The reaction was finally added with 10 M NaOH.
IC50 [µM],Ki [µM],Structure (SMILES)
4.8,3,COc1ccc(-c2ccc(O)cc2)c(C(c2ccc(O)cc2)c2ccc(O)cc2)c1C#Cc1ccc(O)cc1 [PTP1B spring 7 (7)]
15.9,13.9,O=C1C=CC(=C(c2ccc(O)cc2)c2c(-c3ccc(O)cc3O)ccc(CO)c2C#Cc2ccc(O)cc2)C=C1 [PTP1B spring 5 (5)]
14.6,11.1,O=C1C=CC(=C(c2ccc(O)cc2)c2c(C#Cc3ccc(O)cc3)cccc2-c2ccc(O)cc2O)C=C1 [Selaginellin W (4)]
58,,O=C1C=CC(=C(c2ccc(O)cc2)c2c(C#Cc3ccc(O)cc3)cccc2-c2ccc(O)cc2)C=C1 [Selaginellin T (1)]
14.5,11.3,COc1cc(C#Cc2c(CO)ccc(-c3ccc(O)cc3)c2C(=C2C=CC(=O)C=C2)c2ccc(O)cc2)ccc1O [Selaginellin V (3)]
13.8,9.7,Cc1ccc(-c2ccc(O)cc2)c(C(=C2C=CC(=O)C=C2)c2ccc(O)cc2)c1C#Cc1ccc(O)cc1 [Selaginellin U (2)]
